Test results as given in patent US10870646B2, “Oxazolidinones and pharmaceutical compositions thereof for treating bacterial infections, including infection of Mycobacterium tuberculosis” (University of St. Thomas, priority 2017, dated 2020).
Values after ≈ are worked out from the molar mass of the structure shown. Read-outs that look alike come from different tables or passages of the source.

Tests used:
[1] = tested on: Mycobacterium tuberculosis; conditions: cited from earlier work; for MIC90: Mycobacterium tuberculosis, strain not stated, Kaushik et al. 2015 cited after the table
Enterococcus faecalis = experiment: MIC90 broth microdilution; type: cell-based; conditions: for MIC90: Enterococcus faecalis
Staphylococcus aureus = experiment: MIC90 broth microdilution; type: cell-based; conditions: for MIC90: Staphylococcus aureus
Pseudomonas aeruginosa = experiment: MIC90 broth microdilution; type: cell-based; conditions: for MIC90: Pseudomonas aeruginosa
Klebsiella pneumoniae = experiment: MIC90 broth microdilution; type: cell-based; conditions: for MIC90: Klebsiella pneumoniae
E. faecalis [2] = experiment: Checkerboard titration assay (drug-drug interaction); type: cell-based, Enterococcus faecalis; conditions: combined with biapenem, faropenem and tebipenem
S. aureus [3] = experiment: as above; type: cell-based, Staphylococcus aureus; conditions: combined with biapenem, faropenem and tebipenem
[4] = tested on: Acinetobacter baumannii ATCC 19606; experiment: MIC90 broth microdilution; type: cell-based; conditions: ATCC19606
S. aureus [5] = experiment: Minimum bactericidal concentration (MBC99.9); type: cell-based, Staphylococcus aureus; conditions: up to 8 times MIC90
[6] = tested on: Mycobacterium tuberculosis H37Rv; experiment: MIC90 broth macrodilution; type: cell-based
[7] = tested on: Acinetobacter baumannii ACBA; experiment: MIC90 broth microdilution; type: cell-based
Mtb H37Rv = experiment: Minimum bactericidal concentration (MBC99.9); type: cell-based, Mycobacterium tuberculosis
[8] = tested on: Acinetobacter baumannii 6M-1b; experiment: MIC90 broth microdilution; type: cell-based
E. faecalis [9] = type: cell-based, Enterococcus faecalis
Enterobacter cloacae = experiment: MIC90 broth microdilution; type: cell-based; conditions: for MIC90: Enterobacter cloacae
Mtb = experiment: Checkerboard titration assay (drug-drug interaction); type: cell-based, Mycobacterium tuberculosis; conditions: combined with isoniazid or rifampicin
Mycobacterium avium = experiment: MIC90 broth microdilution; type: cell-based; conditions: for MIC90: Mycobacterium avium
S. aureus [10] = type: cell-based, Staphylococcus aureus
Mycobacterium abscessus = experiment: MIC90 broth microdilution; type: cell-based; conditions: for MIC90: Mycobacteroides abscessus
E. faecalis [11] = experiment: Minimum bactericidal concentration (MBC99.9); type: cell-based, Enterococcus faecalis; conditions: up to 8 times MIC90
S. aureus [12] = conditions: Zurenko et al. 1996; cited from earlier work
[13] = Acinetobacter baumannii ATCC 19606, read-out: MIC90
[14] = Mycobacterium tuberculosis H37Rv, read-out: MIC90
[15] = Acinetobacter baumannii ACBA, patient isolate
[16] = Acinetobacter baumannii ACBA, patient isolate, read-out: MIC90
[17] = Mycobacterium abscessus, read-out: MIC90
[18] = Acinetobacter baumannii 6M-1b, environmental isolate

For `C[C@@H](O)[C@H]1C(=O)N2C(C(=O)[O-])=C(SC3Cn4cnc[n+]4C3)[C@H](C)[C@H]12` (some centres unmarked) [Biapenem], the MIC90 [1] is listed as 2.5 to 5.0 µg/mL, the MIC90 (Enterococcus faecalis; read-out: MIC90) is listed as 0.25 to 0.5 µg/mL (≈ 0.713 to 1.43 µM) and the MIC90 (Staphylococcus aureus; read-out: MIC90) is listed as 0.007 to 0.015 µg/mL (≈ 0.02 to 0.0428 µM).

For `CC(=O)NC[C@H]1CN(c2ccc3c(c2)Oc2ccccc2O3)C(=O)O1` [Compound T145], the “activity against growth (in words)” value (Pseudomonas aeruginosa) was “no activity”, the MIC90 (Pseudomonas aeruginosa) was over 64 µg/mL and the “activity against growth (in words)” value (Klebsiella pneumoniae) was “no activity”. For the same molecule, the MIC90 (Klebsiella pneumoniae) was over 64 µg/mL, the “drug-drug interaction (synergy, indifference, antagonism)” value (E. faecalis [2]) was “indifferent” and the “activity against growth (in words)” value (Enterococcus faecalis) was “potent activity”. The MIC90 (Enterococcus faecalis) was 0.25 to 0.5 µg/mL (≈ 0.735 to 1.47 µM), the “drug-drug interaction (synergy, indifference, antagonism)” value (S. aureus [3]) was “indifferent” and the MIC90 ([4]; Acinetobacter baumannii) was 32 to 64 µg/mL (≈ 94 to 188 µM). For the same molecule, the “bactericidal or bacteriostatic activity” value (S. aureus [5]) was “bacteriostatic”, the “activity against growth (in words)” value (Staphylococcus aureus) was “potent activity” and the MIC90 (Staphylococcus aureus) was 0.5 to 1 µg/mL (≈ 1.47 to 2.94 µM). The MIC90 ([6]; Mycobacterium tuberculosis, H37RV) was 0.5 to 1 µg/mL (≈ 1.47 to 2.94 µM), the MIC90 [7] was over 64 µg/mL and the MIC90 ([7]; Acinetobacter baumannii) was over 64 µg/mL. For the same molecule, the “bactericidal or bacteriostatic activity” value (Mtb H37Rv; Mtb, 1, 2, 4 and 8 times MIC90) was “bactericidal activity”, the MBC (Mtb H37Rv; Mycobacterium tuberculosis, Mtb H37Rv) was 2 µg/mL (≈ 5.88 µM) and the MIC90 [8] was 0.25 to 0.50 µg/mL. For the same molecule, the MIC90 ([8]; Acinetobacter baumannii, 6M1B) was 0.25 to 4 µg/mL (≈ 0.735 to 11.8 µM), the “selection of spontaneous resistant mutants” value (E. faecalis [9]) was “failed to produce distinct colonies” and the “activity against growth (in words)” value (Enterobacter cloacae) was “no activity”. For the same molecule, the MIC90 (Enterobacter cloacae) was over 64 µg/mL, the “drug-drug interaction (synergy, indifference, antagonism)” value (Mtb) was “indifferent” and the “activity against growth (in words)” value (Mycobacterium avium) was “no activity”. For the same molecule, the MIC90 (Mycobacterium avium) was over 64 µg/mL, the “selection of spontaneous resistant mutants” value (S. aureus [10]) was “failed to produce distinct colonies” and the “activity against growth (in words)” value (Mycobacterium abscessus) was “no activity”. The MIC90 (Mycobacterium abscessus) was over 64 µg/mL and the “bactericidal or bacteriostatic activity” value (E. faecalis [11]) was “bacteriostatic”.

Molecule `COc1cccc2c1Oc1ccc(N3C[C@H](CNC(C)=O)OC3=O)cc1O2` [Compound T197, (S)—N-((3-(6-methoxydibenzo[b,e][1,4]dioxin-2-yl)-2-oxooxazolidin-5-yl)methyl)acetamide] has an MIC90 (Pseudomonas aeruginosa; read-out: MIC90) of over 64 µg/mL, an MIC90 (Klebsiella pneumoniae; read-out: MIC90) of over 64 µg/mL and an MIC90 (Enterococcus faecalis; read-out: MIC90) of 8 to 16 µg/mL (≈ 21.6 to 43.2 µM). For the same molecule, the MIC90 [4, 13] was over 64 µg/mL, the MIC90 (Staphylococcus aureus; read-out: MIC90) was 16 to 32 µg/mL (≈ 43.2 to 86.4 µM) and the MIC90 [6, 14] was 8 to 16 µg/mL (≈ 21.6 to 43.2 µM). The MIC90 [7, 15] was over 64 µg/mL, the MIC90 [7, 16] was over 64 µg/mL and the MIC90 (Enterobacter cloacae; read-out: MIC90) was over 64 µg/mL. For the same molecule, the MIC90 (Mycobacterium avium; read-out: MIC90) was over 64 µg/mL and the MIC90 (Mycobacterium abscessus; [17]) was over 64 µg/mL.

For `C[C@@H](O)[C@H]1C(=O)N2C(C(=O)O)=C([C@H]3CCCO3)S[C@H]12` [Faropenem], the MIC90 [1] is given as 2.5 to 5.0 µg/mL, the MIC90 (Enterococcus faecalis; read-out: MIC90) is given as 0.25 to 0.5 µg/mL (≈ 0.876 to 1.75 µM) and the MIC90 (Staphylococcus aureus; read-out: MIC90) is given as 0.015 to 0.03 µg/mL (≈ 0.0526 to 0.105 µM).

In the case of `CC(=O)NC[C@H]1CN(c2ccc(N3CCOCC3)c(F)c2)C(=O)O1` [Linezolid, reference compound], the MIC90 (Pseudomonas aeruginosa; read-out: MIC90) is listed as over 64 µg/mL, the MIC90 (Klebsiella pneumoniae; read-out: MIC90) is listed as 16 to 32 µg/mL (≈ 47.4 to 94.9 µM) and the MIC90 of linezolid ([1]; Mtb, Rodriguez et al. 2002) is listed as 0.5 to 2.0 µg/mL. For the same molecule, the MIC90 (Enterococcus faecalis; read-out: MIC90) was 1 to 2 µg/mL (≈ 2.96 to 5.93 µM), the MIC90 [4, 13] was over 64 µg/mL and the MIC90 (Staphylococcus aureus; read-out: MIC90) was 1 to 2 µg/mL (≈ 2.96 to 5.93 µM). It also gave an MIC90 [6, 14] of 0.2 to 2 µg/mL (≈ 0.593 to 5.93 µM), an MIC90 [7, 15] of over 64 µg/mL and an MIC90 [7, 16] of over 64 µg/mL. For the same molecule, the “bactericidal or bacteriostatic activity” value (S. aureus [12]) was “bacteriostatic activity”, the MIC90 [8, 18] was 0.25 to 0.50 µg/mL and the MIC90 ([8]; Acinetobacter baumannii, 6M1B, Acinetobacter baumannii 6M-1b, environmental isolate, read-out: MIC90) was 0.25 to 4 µg/mL (≈ 0.741 to 11.9 µM). The MIC90 (Enterobacter cloacae; read-out: MIC90) was over 64 µg/mL.

Work on `C[C@@H](O)[C@H]1C(=O)N2C(C(=O)O)=C(S[C@@H]3CN[C@H](C(=O)N(C)C)C3)[C@H](C)[C@H]12` [Meropenem, reference compound] yielded an MIC90 (Pseudomonas aeruginosa; read-out: MIC90) of 0.25 to 0.5 µg/mL (≈ 0.652 to 1.3 µM), an MIC90 (Klebsiella pneumoniae; read-out: MIC90) of under 0.06 µg/mL and an MIC90 (Enterococcus faecalis; read-out: MIC90) of 4 to 8 µg/mL (≈ 10.4 to 20.9 µM). The MIC90 [4, 13] was over 64 µg/mL, the MIC90 (Staphylococcus aureus; read-out: MIC90) was 0.06 to 0.13 µg/mL (≈ 0.156 to 0.339 µM) and the MIC90 [6, 14] was 4 to 8 µg/mL (≈ 10.4 to 20.9 µM). For the same molecule, the MIC90 [7, 15] was over 64 µg/mL, the MIC90 [7, 16] was over 64 µg/mL and the MIC90 [8, 18] was 1 to 2 µg/mL. It also gave an MIC90 (Enterobacter cloacae; read-out: MIC90) of 0.13 to 0.25 µg/mL (≈ 0.339 to 0.652 µM), an MIC90 (Mycobacterium avium; read-out: MIC90) of over 64 µg/mL and an MIC90 (Mycobacterium abscessus; [17]) of over 64 µg/mL.

In the case of `C[C@@H](O)[C@H]1C(=O)N2C(C(=O)O)=C(SC3CN(C4=NCCS4)C3)[C@H](C)[C@H]12` [Tebipenem], the MIC90 [1] is given as 1.25 to 2.5 µg/mL, the MIC90 (Enterococcus faecalis; read-out: MIC90) is given as 0.25 to 0.5 µg/mL (≈ 0.652 to 1.3 µM) and the MIC90 (Staphylococcus aureus; read-out: MIC90) is given as 0.03 to 0.06 µg/mL (≈ 0.0782 to 0.156 µM).
